Assay [1] relates to hCMEC/D3 cells. Briefly: Jurkat cell migration across hCMEC/D3 transwell in vitro BBB. As to conditions: hCMEC/D3 on Transwell; migrated cells counted after 24 hours. It is filed as cell-based, human. The source says:
The blood brain barrier (BBB) is comprised of endothelial cells. During late stages of EAE, lymphocytes are known to cross the BBB. In order to determine if adenosine receptor stimulation of brain endothelial cells could promote lymphocyte migration through the BBB, an in vitro BBB was established. The human brain endothelial cell line hCMEC/D3 (Weksler et al., “Blood-brain Barrier-specific Properties of a Human Adult Brain Endothelial Cell Line,” J. Neurochem. 19(13):1872-4 (2005); Poller et al., “The Human Brain Endothelial Cell Line hCMEC/D3 as a Human Blood-brain Barrier Model for Drug Transport Studies,” J. Neurochem. 107(5):1358-1368 (2008), which are hereby incorporated by reference in their entirety) was obtained, which has been previously described as having BBB properties.
hCMEC/D3 cells were seeded onto Transwell and allowed to grow to confluencey. 2×10^6 Jurkat cells were added to the upper chamber with or without NECA (general adenosine receptor [AR] agonist), CCPA (A1AR agonist), CGS 21680 (A2AAR agonist), or DMSO vehicle. After 24 hours, migrated cells in the lower chamber were counted. Values are relative to the number of cells that migrate through non-HCMECD3 seeded transwells.

Assay [2] has as its system hCMEC/D3 cells. Kind of assay: cAMP levels in hCMEC/D3 cells (cAMP Screen kit). The class given is cell-based, human. Particulars: 15 minutes treatment, various concentrations. As for the experimental part: Adenosine receptor activation regulates cAMP levels in cells. In order to determine the sensitivity of human brain endothelial cells to adenosine receptor induced cAMP regulation, human brain endothelial cells were cultured with adenosine receptor agonists at various concentrations, followed by cAMP level analysis, as shown in FIG. 13.
HCMECD3 cells were grown to confluencey on 24 well plates. As adenosine receptor (“AR”) stimulation is known to influence cAMP levels, cells were treated with or without various concentrations of NECA (general AR agonist), CCPA (A1AR agonist), CGS 21680 (A2AAR agonist), DMSO vehicle, or Forksolin (induces cAMP). After 15 minutes, lysis buffer was added and the cells were frozen at −80 C to stop the reaction. Duplicate samples were used for each condition. cAMP levels were assayed using a cAMP Screen kit (Applied Biosystems, Foster City, Calif.).

Assay [3] relates to blood brain barrier. Briefly: Evans Blue dye extravasation across the blood brain barrier after single i.v. treatment. It is filed as in vivo, mouse. Particulars: 100 μl 0.01 nM single i.v. one hour before dye, brain harvested four hours after dye. How it is done: The objective of this experiment was to determine if the blood brain barrier could be modulated by activation of adenosine receptors. NECA is a non-selective adenosine receptor agonist, with similar affinities for A1, A2a and A3 adenosine receptors and a low affinity for the A2b adenosine receptor. In order to determine if activation of adenosine receptors would induce extravasation of Evans Blue dye across the blood brain barrier (BBB), mice were treated with: NECA, a non-selective adenosine receptor agonist (n=5, 100 μl 0.01 nM); SCH58261, an A2a adenosine receptor specific antagonist (n=5, 1 mg/kg); pertussis toxin, an agent known to induce BBB leakiness and as such used as a positive control (n=7, 200 μl); and, PBS as a vehicle control (n=5, 100 μl). CD73^−/− mice, which lack the ability to produce extracellular adenosine, were also treated with NECA (n=4, 100 μl 0.01 nM). Treatments were administered as a single i.v. injection one hour prior to i.v. injection of 200 μl 1% Evans Blue dye ([…] total dye injected). Four hours after administration of Evans Blue, mice were anesthetized with a ketamine/xylazine mix and perfused via the left ventricle with ice cold PBS. […] Following extraction, the tissue/solvent mixture was centrifuged at 500×g for 30 minutes and 100 μl of supernatant was read on a BioTex spectrophotometer at 620 nm. Data is expressed as μg Evans Blue/ml DMF.

For another assay, the system named is Z310 cells. Kind of assay: Jurkat cell migration across Z310 choroid plexus cell transwell. Particulars: Z310 cells on Transwell; migrated cells counted after 24 hours; n=1. The class given is cell-based, murine. How it is done:
The choroid plexus (“CP”) controls lymphocyte migration into the CNS. The CP expresses the A1 and A2a adenosine receptors. EAE is prevented in mice when A2a adenosine receptor activity is blocked. EAE is enhanced when the A1 adenosine receptor is missing. It was hypothesized that A2a adenosine receptor activation promotes lymphocyte migration across the CP. Z310 cells are a murine choroid plexus cell line. To test the hypothesis, Transwell membranes were seeded with Z310 cells and allowed to grow to confluencey. 2×10^6 Jurkat cells were added to the upper chamber with or with out NECA (n=1, general AR agonist), CCPA (n=1, A1AR agonist), CGS 21680 (n=1, A2AAR agonist), or DMSO vehicle(n=1). After 24 hours, migrated cells in the lower chamber were counted. Values are relative to the number of cells that migrate through non-Z310 seeded transwells and the results are shown in FIG. 12.

Assay [4] has as its system blood brain barrier. Briefly: Evans Blue dye extravasation across the blood brain barrier in mice immunized for EAE. Particulars: WT EAE mice; 100 μl 0.01 nM on day 1, 3, 5, 7, 9; dye on day 10, brain harvested six hours later; vs PBS control EAE mice. The class given is in vivo, mouse. How it is done: In order to determine if activation of adenosine receptors would induce extravazation of Evans Blue dye across the blood brain barrier (BBB), mice were first treated on day one with NECA, a non-selective adenosine receptor agonist (n=2, 100 μl 0.01 nM); and, PBS as a vehicle control (n=2, 100 μl). On day 2 mice were then immunized with CFA-MOG35-55 and pertussis to induce EAE. Then NECA or PBS was administered every other day on day 3, day 5, day 7 and day 9. On day 10, mice were injected intravenously with 200 μl 1% Evans Blue dye ([…] total dye injected). Six hours after administration of Evans Blue, mice were anesthetized with a ketamine/xylazine mix and perfused via the left ventricle with ice cold PBS. Brains were harvested and homogenized in n,n-dimethylformamide (DMF) at 5 μl/mg (v:w). Tissue was incubated for 72 hours at room temperature in DMF to extract the dye. Following extraction, the tissue/solvent mixture was centrifuged at 500×g for 30 minutes and 100 μl of supernatant was read on a BioTex spectrophotometer at 620 nm.

The structures appear in SMILES notation.

As to `CCNC(=O)[C@H]1O[C@@H](n2cnc3c(N)ncnc32)[C@H](O)[C@@H]1O` [NECA], the “lymphocyte (Jurkat) migration across the in vitro BBB” value in the assay on hCMEC/D3 cells [1] was “induced some migration”. Also, in the assay with hCMEC/D3 cells [2], the cAMP levels result is on record as “increased cAMP levels”. In addition, the “Evans Blue dye migration across the blood brain barrier” value is given as “almost five fold increase in dye migration vs. the PBS control” in the assay on blood brain barrier [3] (CD73-/- mice, vs PBS control) and “increase over control mice” in the assay with blood brain barrier [3] (WT mice, vs control mice). Also, the “lymphocyte (Jurkat) migration across the CP” value in the assay with Z310 cells was “induced migration”. For the same compound, in the assay on blood brain barrier [4], the “BBB permeability (Evans Blue dye migration into the CNS)” value is recorded as “increase in BBB permeability over PBS control EAE mice”.
